{"source": "patent US12398110B2", "about": "“Second generation inhibitors of mitochondrial permeability transition pore with improved plasma stability” (Oregon Health & Science University, priority 2019, dated 2025)", "key": {"[1]": {"tested_on": "col6a1 zebrafish morphants", "test": "Spontaneous coiling events in col6a1 zebrafish morphants", "assay_type": "in vivo", "details": "24 hpf, 3 hours of treatment, 0.1, 1 or 10 μm", "procedure": "(§1) Zebrafish embryos were injected with col6a1 morpholino at the 1-cell stage, dechorionated at 20 hpf and treated at 21 hpf with 0.1, 1 or 10 μm of either TR001 or 63. DMSO-treated embryos injected with a scrambled morpholino were used as a control. […] It should be noted that in these protocols, embryos were exposed to drugs for a longer period of time than in the spontaneous coiling experiments. This difference may help to explain why TR001 was as effective at 0.1 μm as it was at 1 and 10 μm.\nMorpholino antisense injection and treatment. Knock-down of col6a1 gene expression was obtained with a previously published morpholino ^[25] with sequence GAGAGCGGAAGACGAACCTTCATTC (SEQ ID NO: 2; GeneTools, Inc.). A control morpholino with no sequence homology in the zebrafish genome was used in parallel (CCTCTTACCTCAGTTACAATTTATA; SEQ ID NO: 3). […]\nMotor activity. The number of spontaneous coiling events performed in 15 seconds by single zebrafish embryos was recorded at 24 hpf by light microscopy. Touch-evoked escape responses were recorded at 48 hpf by observing the ability of zebrafish embryos to escape after a tail-touch with a little tip. […]"}, "[2]": {"test": "Plasma stability determination in mouse plasma", "assay_type": "in vitro ADME", "details": "mouse, plasma, read-out: half-life (t1/2) in plasma", "procedure": "Plasma stability determination. The degradation of TR001 in the presence of mouse plasma (from Innovative Research) was used to predict the plasma stability of the compound to esterase catalyzed hydrolysis. A positive control for plasma cholinesterase, propantheline bromide, was included in all assays. Briefly, murine plasma was incubated with 1 μm TR001. Aliquots were removed at t=0, 5, 15, 30, and 60 and 120 min and quenched with acetonitrile containing structurally related compound (TR073) as the internal standard. The amount of TR001 remaining in the supernatant was assessed by LC-MS/MS in multiple reaction monitoring mode (MRM) using a 4000 QTRAP (SCIEX) with electrospray ionization source. The instrument was operated in negative mode with source parameters: source voltage […], GS1 50, GS2 50, CUR 30, TEM 650 and CAD gas MED. Optimal MRM transitions were obtained by direct infusion of the pure compound into the source. The mass spectrometer was interfaced to a Shimadzu (Columbia, MD) SIL-20AC XR auto-sampler maintained at 35° C. followed by 2 LC-20AD XR LC pumps. The internal standard and compound of interest were resolved using a Gemini-NX C18 50×2.1 mm column (Phenomenex) with 0.1% formic acid (solvent A) and 0.1% formic acid in acetonitrile (solvent B). The injection volume was 10 μL at a flow rate of 0.75 mL/min. The gradient elution was 10% B to 95% B over 5 min and held at 95% for 1 min before returning to start conditions. The column was maintained at 40° C. using a Shimadzu CTO-20AC column oven. Data were acquired using Analyst 1.6.2 and analyzed using Multiquant 3.0.1 software. The first-order rate constant for substrate depletion was determined from a linear least squares fit of the natural log of the percent parent compound remaining versus time. The rate constant was used to calculate the plasma half-life as an indicator of stability."}, "[3]": {"tested_on": "col6a1 zebrafish morphants", "test": "Survival of col6a1 zebrafish morphants", "assay_type": "in vivo", "text": "In FIG. 6D, the left panel represents data from embryos injected with a scrambled morpholino (scrd_MO, open squares), Exon 9 col6a1 morpholino (col6a1_MO, closed squares) and col6a1_MO embryos treated with TR001 at 0.1 μm (open circles), 1.0 μm (open triangles), 10 μm (open diamonds). Right panel represents data from embryos injected with a scrambled morpholino (scrd_MO, open squares), Exon 9 col6a1 morpholino (col6a1_MO, closed squares) and col6a1_MO embryos treated with 63 at […] (closed circles), 1.0 μm (closed triangles), 10 μm (closed diamonds). Embryos were treated with oligomycin, FCCP, rotenone (R) and antimycin A (A) as indicated. Results are presented as mean±SEM. Both graphs report data from 5 independent experiments with n=20 for each treatment. Error bars are reported as SEM. FIG. 6E, Survival of DMSO-treated zebrafish injected with the scrambled morpholino (open squares), DMSO-treated col6a1 morphants (closed squares) and col6a1 morphants treated with TR001 (0.1 μm, open triangles; 1.0 μm, open circles; 10 μm, open diamonds) or 63 (0.1 μm, closed triangles; 1.0 μm, closed circles; 10 μm, closed diamonds) were recorded for 30 days. Treatment started at 21 hpf and repeated at 4 dpf (arrows). Data report the percentage of surviving fish and are mean±SEM from 3 independent experiments (n=15 for each condition in each set).\nFinally, fish survival was also assessed. Fifty percent of col6a1 morphant embryos treated with 0.1 μm of TR001 survived 7 days longer than col6a1 morphants treated with DMSO (p<0.0001 from 3 to 12 dpf), and 20% were still alive at 30 dpf (i.e., after 29 days of treatment) (FIG. 6E).\n(§2) Morpholino antisense injection and treatment. Knock-down of col6a1 gene expression was obtained with a previously published morpholino ^[25] with sequence GAGAGCGGAAGACGAACCTTCATTC (SEQ ID NO: 2; GeneTools, Inc.). A control morpholino with no sequence homology in the zebrafish genome was used in parallel (CCTCTTACCTCAGTTACAATTTATA; SEQ ID NO: 3). Zebrafish eggs from wild-type matings were injected at the 1-2 cell stage with approximately 10 nL of 0.1 mm morpholino solution (corresponding to 4 ng of morpholino) using a WPI pneumatic PicoPump PV820 injector (World Precision Instruments, Inc.). Zebrafish embryos were dechorionated at 20 hours post fertilization (hpf) and treated at 21 hpf with increasing doses (0.1, 1 and 10 μm) of both TR001 and 63 compounds dissolved in fish water with 1% DMSO (vehicle).\nSurvival. Zebrafish survival was monitored every 3 days for 30 days. Drug treatment with both TR001 and 63 dissolved in fish water with 1% DMSO started at 21 hpf. After 3 days of treatment (4 days post fertilization, dpf), zebrafish were moved to a bigger tank (50 mL) with fresh compounds dissolved in 1% DMSO. As a control vehicle, fish water with 1% DMSO was used."}, "[4]": {"tested_on": "col6a1 zebrafish morphants", "test": "Touch-evoked escape response in col6a1 zebrafish morphants", "assay_type": "in vivo", "details": "48 hpf", "procedure": "as §1, §2\nMotor activity. The number of spontaneous coiling events performed in 15 seconds by single zebrafish embryos was recorded at 24 hpf by light microscopy. Touch-evoked escape responses were recorded at 48 hpf by observing the ability of zebrafish embryos to escape after a tail-touch with a little tip. Embryos were subdivided in 4 groups according to the observed phenotype: paralyzed embryos, score 0; underdeveloped embryos showing only coiling events, score 1; embryos showing lower motility, score 2; normal embryos, score 3."}, "[5]": {"tested_on": "col6a1 zebrafish morphants", "test": "Birefringence (muscle structure) in col6a1 zebrafish morphants", "assay_type": "in vivo", "details": "48 hpf", "procedure": "Muscle structure was assessed by birefringence analysis at 48 hpf, a time when muscle tissue is fully developed and organized muscle fibers start to show anisotropic features. A high percentage of severe birefringence abnormality (>75%, FIG. 6C) was detected in col6a1 morphants, indicating major defects of muscle fiber development and organization.\nas §2, with “Zebrafish embryos were dechorionated at 20 hours post fertilization (hpf) and treated at 21 hpf with increasing doses (0.1, 1 and 10 μm) of both TR001 and 63 compounds dissolved in fish water with 1% DMSO (vehicle).” left out\nBirefringence. Muscle structure was monitored by birefringence analysis, taking advantage of muscle anisotropy, which is the ability of muscle fibers to refract polarized light. […] With this set-up, light refracted by muscle fibers (due to the pseudo-crystalline array of sarcomeres) is transmitted and analyzed. Integrated area of birefringence was calculated using ImageJ software. […]"}}, "data": [{"smiles": "Cc1ccc(Cl)cc1NC(=O)c1cc(-c2ccc(F)c(O)c2)on1", "note": "[Compound 63, reference compound]", "values": [{"measurement": "spontaneous coiling events", "setting": "[1]", "value": "no effect"}, {"measurement": "half-life at 1 µM", "setting": "[2]", "value": 21, "unit": "min"}, {"measurement": "survival (in words)", "setting": "[3]; 1 μm", "value": "ineffected"}, {"measurement": "survival (in words)", "setting": "[3]; 10 μm", "value": "ineffected"}, {"measurement": "survival (in words)", "setting": "[3]; lowest concentration tested (0.1 μm)", "value": "decreased activity compared to TR001"}, {"measurement": "touch-evoked escape response (motility)", "setting": "[4]; 0.1-1.0 μM", "value": "minimal recovery"}, {"measurement": "touch-evoked escape response (motility)", "setting": "[4]; 10 μm", "value": "no longer seen"}, {"measurement": "muscle structure by birefringence", "setting": "[5]", "value": "minimal effect"}]}]}
